# Columns and labels:
# hOR17-4 = assay: Ca2+ imaging (Fura-2) of HEK293 cells transiently transfected with pOR17-4 (chimeric receptor); format: cell-based, human; settings: for Rezeptoraktivierung (Ca^2+-Antwort): single odorant about 500 µM, pOR17-4-transfected HEK293 cells; for Wirksamkeit (Rangordnung der Agonisten): ranking by amplitude normalised to ATP and by responding cells relative to Cyclamal ca. 5 mM
# Excerpt: Es wird vermutet, dass die Transmembrandomänen III-VI eine Bindungstasche zum Binden von Agonisten bilden (s. S. Firestein, Nature 413, 211-218 (2001)). Um diese Vermutung für den Rezeptor hOR17-4 zu überprüfen wurde ein für die vermuteten Transmembrandomänen III bis VI codierender Abschnitt der für hOR17-4 codierenden cDNA in einem Shuttle-Expressions-Vektor (pOLF-Express) kloniert. Der Expressionsvektor pOLF-Express umfasst die für die N- und C-terminalen Regionen von hOR17-40 codierenden DNA-Abschnitte (C. H. Wetzel et al., Journal of Neuroscience 19, 7426-7433 (1999)). Das resultierende chimäre Rezeptorprotein sollte die Agonistenspezifität des vollständigen Rezeptors hOR17-4 besitzen.
# HEK293-Zellen wurden in MEM (Life Technologies, Gaithersburg, MD), das mit 10 % hitze-inaktiviertem fetalem Kälber-Serum angereichert war, in einem Inkubator bei 37 °C in einer Atmosphäre aus 95 % befeuchteter Luft und 5 % CO2 kultiviert. Semikonfluente Zellen wurden in 35 mm Gefäßen (Falcon) mittels Calciumphosphat-Präzipitation (Zufall et al., PNAS 90 (1993), 9335-9339) unter Verwendung jeweils des Plasmids pOR17-4 bzw. pOR17-4v transfiziert. Die Transfektionseffizienz - typischerweise 10 % - wurde histochemisch mit dem Reporterplasmid pCH110 (Pharmacia, Uppsala, Schweden) überprüft, das für β-Galactosidase codiert. Messungen wurden 48 bis 72 Stunden nach der Transfektion durchgeführt. Die Transfektionseffizienz kann mit einem für GFP, einem grün fluoreszierenden Protein, codierenden Reporterplasmid ebenfalls überprüft werden.
# Die Rezeptor-Aktivierung in HEK293-Zellen führt zu einem vorübergehenden Anstieg der cytosolischen Ca^2+-Konzentration, die auf der Einzelzell-Ebene unter Verwendung des Ca^2+-sensitiven Farbstoffes Fura-2 (Fura-2 AM, Molecular Probes Europe BV, Leiden, Niederlande; Ladekonzentration 3-4 µg/ml; Ladezeit ca. 30 min) und ratiofluorometrischen Bildgebungstechniken (Imaging-Experimente) detektiert wurden.
# Die Ca^2+-imaging-Experimente wurden auf dem Träger eines invertierten Zeiss-Mikroskopes durchgeführt, das für die ratiofluorometrische Bildgebung mit einer Xenon-Bogenlampe, einem Vielfach-Wellenlängen-Illuminations-System POLYCH-ROM II zur Anregung, einer gekühlten charge-coupled device (CCD)-Kamera und einer WinNT-basierten T.I.L.L.-Vision-Software zum Sammeln und raum- und zeitabhängigen Quantifizieren Ca^2+-abhängiger Fluoreszenz-Signale (F340/F380-Verhältnis) ausgestattet war. HEK293-Zellen wurden mit 32-facher, Spermazellen mit 63-facher Vergrößerung beobachtet.
# HEK293- und Spermazellen wurden unter Verwendung eines speziellen Applikations-Systems, das es gestattete, vorübergehend alle Zellen im Blickfeld aus einem von sechs benutzergewählten Kapillarröhrchen zu überspülen, Geruchs- und/oder Wirkstoffen (Testlösungen) ausgesetzt. Der Wechsel zwischen den Testlösungen erfolgte nahezu sofort; auch trat im Wesentlichen keine Wirkungsverzögerung nach dem Wechsel auf, weil die Röhrchenspitzen zum optischen Feld eng benachbart waren. Zwischen den Applikationen von Testlösungen überspülte ein Pufferlösungsstrom kontinuierlich alle Zellen im Gefäß, um jedwede potentielle Hintergrund-Anreicherung von Testlösungen (Geruchs- bzw. Wirkstoffen) zu minimieren. Alle Lösungen wurden bei Raumtemperatur appliziert. Alle verwendeten Geruchsstoffe stammten von Dr. T. Gerke, Henkel KGaA, Düsseldorf, FRG, andere Wirkstoffe wurden von Sigma gekauft. Zur Zusammensetzung der Henkel 100-Mischung vergleiche C. H. Wetzel et al., Journal of Neuroscience 19, 7426-7433 (1999).
# Alle auf die potentielle Aktivierung von hOR17-4 untersuchten Geruchsstoffe wurden wenigstens in drei verschiedenen Reihen von Transfektionsexperimenten getestet. […] Geruchsstoffe, die nicht in wenigstens 2 % aller HEK293-Zellen messbare Ca^2+-Konzentrationssteigerung auslösten, wurden nicht zu den hOR17-4-spezifischen Agonisten gezählt, ebenso diejenigen wenigen der untersuchten Komponenten, die ein unspezifisches Ca^2+-Signal in fast jeder Zelle hervorriefen. […]
# [1] = test system: olfaktorische Rezeptor OR5; settings: receptor expressed in E. coli; cited from earlier work
# Spermien = assay: Signal transduction inhibitors on bourgeonal response of sperm (chemotaxis and swimming speed); format: cell-based, human; settings: inhibitor 50 µM, Bourgeonal 100 nM
# Protocol: Gefrorene Samenproben von fünf gesunden Spendern wurden aus der California Cryobank (Los Angeles, CA, USA) erhalten und für Bioassays gemäß den World Health Organization-Richtlinien (World Health Organization: Laboratory for the examination of human serum and semen-cervical mucus interaction, Cambridge University Press (1993)) vorbereitet (vgl. vorheriges Beispiel und Beispiel 7). Bevor oder während die Spermien mit Bourgeonal (100 nM) behandelt wurden, wurden sie jeweils (a) mit Adenylatcyclase-Inhibitor (MDL-12,330A, 50 µM) und (b) mit einem Phospholipase C-Inhibitor (U73122, 50 µM) behandelt.
# Ratten-I7-Rezeptor = molecular target: T1, Ratten-I7-Rezeptor (Rattus norvegicus, UniProt P23270); settings: cited from earlier work
# T1 sequence (P23270 1-327): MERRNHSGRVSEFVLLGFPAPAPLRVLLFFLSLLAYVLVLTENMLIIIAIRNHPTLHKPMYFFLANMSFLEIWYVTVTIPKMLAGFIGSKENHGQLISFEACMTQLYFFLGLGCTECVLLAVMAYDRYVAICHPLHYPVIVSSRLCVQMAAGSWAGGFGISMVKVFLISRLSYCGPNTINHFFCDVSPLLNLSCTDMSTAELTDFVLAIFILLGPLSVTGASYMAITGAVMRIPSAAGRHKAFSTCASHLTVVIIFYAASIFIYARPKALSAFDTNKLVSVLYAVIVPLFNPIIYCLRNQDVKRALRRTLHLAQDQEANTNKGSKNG
# hOR17-40 [2] = molecular target: T2, hOR17-40 (Homo sapiens, UniProt P47881); settings: literature (Wetzel et al. 1999), HEK293; cited from earlier work
# T2 construct: pOR17-40 (Ausschnitt) mit der vollständigen cDNA von hOR17-40; expressed in transfected cells; host or cells: HEK293, plasmid pOR17-40
# T2 sequence (P47881 1-315): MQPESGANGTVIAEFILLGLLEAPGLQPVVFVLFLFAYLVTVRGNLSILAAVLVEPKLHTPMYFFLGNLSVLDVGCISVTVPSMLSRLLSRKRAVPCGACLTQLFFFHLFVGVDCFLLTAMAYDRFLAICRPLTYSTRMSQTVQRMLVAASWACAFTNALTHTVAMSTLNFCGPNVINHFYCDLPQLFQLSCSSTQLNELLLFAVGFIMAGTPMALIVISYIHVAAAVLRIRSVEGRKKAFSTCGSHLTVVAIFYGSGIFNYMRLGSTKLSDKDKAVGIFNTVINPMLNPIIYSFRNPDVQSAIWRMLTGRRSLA
# hOR17-40 [3] = molecular target: T2, hOR17-40; assay: Ca2+ imaging of HEK293 cells transfected with pOR17-40; format: cell-based; settings: n=168
Compound,Rezeptoraktivierung (Ca^2+-Antwort) (hOR17-4),also measured
CCc1ccc(CC(C)(C)C=O)cc1 [Floralazon],"Fähigkeit der Substanzen, den Rezeptor zu aktivieren",
"CC(C=O)Cc1ccc(C(C)(C)C)cc1 (centres unmarked) [Lilial, reference compound]","Fähigkeit der Substanzen, den Rezeptor zu aktivieren",Wirksamkeit (Rangordnung der Agonisten) (hOR17-4): wirksamere Agonisten; spezifische Bindung [1]: spezifische Bindung
Citrusal [reference compound],nicht aktivierenden,
"CC(C)(C)c1ccc(OCC=O)cc1 [(4-tert-Butylphenoxy)acetaldehyd, (4-tert-butylphenoxy)acetaldehyd]",erzeugte ein Ca^2+-Signal,
"Cl.c1ccc(C2CCCC2NC2=NCCCCCCCCCCC2)cc1 (centres unmarked) [MDL-12,330A]",,"Anteil der bourgeonal-responsiven Spermien, die nicht mehr auf Bourgeonal reagierten (Spermien; missing chemotaxis and missing change of swimming speed): 72%"
"O=CCCCCc1ccccc1 [5-Phenylvaleraldehyd, reference compound]",keine messbare Antwort,
"O=C(O)CCc1ccccc1 [3-Phenylpropionsäure, reference compound]",aktivierten den Rezeptor nicht,
"CCCCCCCC=O [Octanal, reference compound]",nicht aktiviert,Stimulation des Rezeptors (Ratten-I7-Rezeptor): stimuliert
CC(=O)CCc1ccc2c(c1)OCO2 [Heliotropylaceton],,"Agonist (Aktivierung des Rezeptors, Erhöhung des cytosolischen Ca^2+-Spiegels) (hOR17-40 [2]): als Agonisten wirkende Substanzen"
"CC(C=O)Cc1ccc2c(c1)OCO2 (centres unmarked) [Helional, reference compound]",keiner Rezeptoraktivierung,"vorübergehende Erhöhung des cytosolischen Ca^2+-Spiegels, Anteil aller getesteten Zellen (hOR17-40 [3]): 2 - 5%; Agonist (Aktivierung des Rezeptors, Erhöhung des cytosolischen Ca^2+-Spiegels) (hOR17-40 [2]): als Agonisten wirkende Substanzen"
CC(C=O)Cc1ccc(C(C)C)cc1 (centres unmarked) [Cyclamal],Agonist identifiziert,"Wirksamkeit (Rangordnung der Agonisten) (hOR17-4): nicht der wirksamste Agonist; Desensitisierung der Geruchsstoff-Antwort (hOR17-4; single application, most responsive cells, ATP response unchanged): vollständigen und langanhaltenden Desensitisierung"
"CC=Cc1ccc(OC)cc1 [Anethol, reference compound]",aktivierten den Rezeptor nicht,
O=CCc1ccccc1 [Phenylacetaldehyd],deutliche Ca^2+-Signale,
"O=Cc1ccccc1 [Benzaldehyd, reference compound]",keine messbare Antwort,
"CC(CCO)c1ccccc1 (centres unmarked) [3-Phenylbutylalkohol, reference compound]",aktivierten den Rezeptor nicht,
"CC(C)c1ccccc1 [Isopropylbenzol, reference compound]",induzierte keine Rezeptoraktivität,
COc1ccc2c(c1)CC[C@@H]1[C@@H]2CC[C@]2(C)[C@@H](NCCCCCCN3C(=O)C=CC3=O)CC[C@@H]12 [U73122],,Änderung des Spermienverhaltens (Spermien): keine Änderung des Spermienverhaltens
"O=CCCCc1ccccc1 [4-Phenylbutylaldehyd, 4-Phenylbutyraldehyd]",deutliche Ca^2+-Signale,
COc1ccc(CC(C)C=O)cc1 (centres unmarked) [Canthoxal],klare Ca^2+-Antworten,Induktion einer Ca^2+-Konzentrationssteigerung (hOR17-4; agonist concentration reduced to 10^-6 M): zu einem gewissen Ausmaß; Wirksamkeit (Rangordnung der Agonisten) (hOR17-4): wirksamere Agonisten
O=CCCc1ccccc1 [3-Phenylpropanal],klaren Ca^2+-Antworten,
"O=CC=Cc1ccccc1 [Cinnamaldehyd, reference compound]",vollständig inaktiv,
"CC(CC=O)c1ccccc1 (centres unmarked) [3-PBA, 3-Phenylbutyraldehyd]",klaren Ca^2+-Antworten,eine Ca^2+-Reaktion nicht mehr auslösender Schwellenwert (hOR17-4): ~50 µM

# Reference: EP1551873B1, “AGONISTS AND ANTAGONISTS OF THE HUMAN ODORANT RECEPTOR OR17-4 AND USES THEREOF” (Symrise AG, priority 2002, dated 2004)
